One test relates to naive human CD8+ T-cells. Description: CD8+ I-MUNE® T-cell proliferation assay (tritiated thymidine incorporation, dendritic cells + CD8+ T-cells + anti-CD40). Format: cell-based. The conditions noted are these: HPV E7.16 9-mer peptides, 5 μg/ml, 45 donors, 1 μg/ml anti-CD40; positive response at least 2.95 times the background. The method, then:
Fresh human peripheral blood cells were collected from humans of unknown exposure status to HPV. These cells were tested to determine antigenic epitopes in HPV 16 and 18, as described in Example 3.
Peripheral mononuclear blood cells (stored at room temperature, no older than 24 hours) were prepared for use as follows. PBMC's were isolated from buffy coat material by centrifuging over an underlay of Lymphoprep at 1000×g for 30 minutes. The interface layer was collected and washed and counted using the Cell-Dyn 3700 System (Abbott). Then, suspensions containing 10^8 PBMC's resuspended in 30 ml of AIM-V (Invitrogen) were prepared and then allowed to adhere to plastic T-75 culture flasks for two hours. The remainder of the cells were frozen at 5×10^7 cells/ml in 45% FCS (Gibco/BRL), 45% PBS w/o Ca & Mg (Mediatech), and 10% DMSO (Sigma). After the two hour PBMC incubation, non-adherent cells were removed from the flasks. The adherent cells were cultured in the flasks with 800 units/ml recombinant human GM-CSF (R&D Systems) and 100 units/ml recombinant human IL-4 (Endogen) at 37° C., 5% CO2. On day 5 of incubation, 50 units/ml recombinant human Il-1α (Endogen) and 0.2 units/ml recombinant human TNF-α were added to the cultures. Adherent and non-adherent dendritic cells were harvested, washed, and counted on day 7, following a one-hour treatment with […] mitomycin C (Sigma) and 10 mM EDTA.
Autologous CD8+ T-cells were prepared from frozen aliquots of PBMCs. After thawing and washing in DPBS, CD8+ T-cells were isolated using a commercially available CD8 negative selection kit (Dynal), according to the manufacturer's instructions. Cells were counted using the Abbott Cell-Dyn 3700 System. The purity obtained using these methods was generally found to be greater than 90%.
This Example describes the assay system used in the present invention. The basic test system is also referred to as the “I-MUNE®” assay system. The basic I-MUNE® assay system was modified as described herein to facilitate analysis of CD8+ T-cell responses. As described in greater detail below, the modifications used in the development of the present invention involved the use of CD8 negative selection beads on PBMC (i.e., instead of CD4). In addition, when CD8 cells were resuspended, […] of a 2 ug/ml anti-CD40 solution was added, before placing the DCs and peptides in the plates (the final concentration of anti-CD40 was 1 ug/ml); and 1 ul of 1 ug/ml PHA was used as a positive control, instead of tetanus toxoid.
In 96-well, round bottom plates, autologous dendritic cells and CD8+ T-cells were combined with test peptides. More specifically, in a volume of 100 μl/well, 2×10^4 dendritic cells in AIM V were combined with individual peptides (at a final peptide concentration of 5 μg/ml and a final DMSO concentration of 0.25%). After a one-hour incubation at 37° C., 5% CO2, 2×10^5 CD8+ T-cells with 2 μg/ml anti-CD40 (eBioscience; Clone 5C3 mouse IgG1, kappa) were added to the culture for a total volume of 200 μl and a final anti-CD40 concentration of 1 μg/ml per well. Negative control wells contained dendritic cells, CD8+ T-cells and 0.25% DMSO. Positive control wells contained dendritic cells, CD8+ T-cells (at the same concentrations as the test wells) and 0.25% DMSO with 5 μg/ml PHA (Sigma) (List). In some experiments, 1 ug/ml anti-IgG1 (eBioscience; Clone P3 mouse IgG1, kappa) was used as an isotype control for comparison purposes. Individual peptides were tested in duplicate or triplicate for each donor.
After 5 days of incubation at 37° C., 5% CO2, the cultures were pulsed with 0.25 μCi/well tritiated thymidine (Perkin Elmer). After a subsequent 24 hours of incubation, plates were harvested and assessed for incorporation of the tritiated thymidine (i.e., T-cell proliferation) using a Wallac Microbeta TriLux liquid scintillation counter (Perkin Elmer). Responses were averaged over the duplicate tests performed for each specimen. […]
In the case of “DEIDGPAGO (DEIDGPAGQ; human papillomavirus) [HPV E7.16 Peptide 36, 9-mer peptide of HPV16 E7]”, the “Epitope Classification” value is “Moderate (“Moderate epitopes” are those epitopes that produce results that are at least two standard deviations above the mean or three times the background)”.

For “DLLMGTLGI (human papillomavirus) [HPV E7.16 Peptide 81, 9-mer peptide of HPV16 E7]”, the “Epitope Classification” value is given as “Minor (“Minor epitopes” are those that have a response rate that is at least twice the background value)”.

For “DLYCYEQLN (human papillomavirus) [HPV E7.16 Peptide 21, 9-mer peptide of HPV16 E7]”, the “Epitope Classification” value is “Major (a “major epitope” is defined as having a response rate at least three standard deviations above the mean background response rate)”.

As to “DTPTLHEYM (human papillomavirus) [HPV E7.16 Peptide 4, 9-mer peptide of HPV16 E7]”, the “Epitope Classification” value is listed as “Moderate (“Moderate epitopes” are those epitopes that produce results that are at least two standard deviations above the mean or three times the background)”. Turning to “EDLLMGTLG (human papillomavirus) [HPV E7.16 Peptide 80, 9-mer peptide of HPV16 E7]”, the “Epitope Classification” value is on record as “Minor (“Minor epitopes” are those that have a response rate that is at least twice the background value)”. In the case of “GQAEPDRAH (human papillomavirus) [HPV E7.16 Peptide 43, 9-mer peptide of HPV16 E7]”, the “Epitope Classification” value is recorded as “Minor (“Minor epitopes” are those that have a response rate that is at least twice the background value)”. Same read-out and setting: for “HEYMLDLQP (human papillomavirus) [HPV E7.16 Peptide 9, 9-mer peptide of HPV16 E7]” the value was “Minor (“Minor epitopes” are those that have a response rate that is at least twice the background value)”; for “IRTLEDLLM (human papillomavirus) [HPV E7.16 Peptide 76, 9-mer peptide of HPV16 E7]”, “Minor (“Minor epitopes” are those that have a response rate that is at least twice the background value)”; for IVCPICSQK [HPV E7.16 Peptide 89], “Minor (“Minor epitopes” are those that have a response rate that is at least twice the background value)”. Still for that read-out and setting: for “IVTFCCKCD (human papillomavirus) [HPV E7.16 Peptide 54, 9-mer peptide of HPV16 E7]” the value was “Minor (“Minor epitopes” are those that have a response rate that is at least twice the background value)”; for “LEDLLMGTL (human papillomavirus) [HPV E7.16 Peptide 79, 9-mer peptide of HPV16 E7]”, “Minor (“Minor epitopes” are those that have a response rate that is at least twice the background value)”; for “LHEYMLDLQ (human papillomavirus) [HPV E7.16 Peptide 8, 9-mer peptide of HPV16 E7]”, “Minor (“Minor epitopes” are those that have a response rate that is at least twice the background value)”. On the same count and under the same terms, for LLMGTLGIV [HPV E7.16 Peptide 82] the value was “Minor (“Minor epitopes” are those that have a response rate that is at least twice the background value)”. On to “LMGTLGIVC (human papillomavirus) [HPV E7.16 Peptide 83, 9-mer peptide of HPV16 E7]”, for which the “Epitope Classification” value was “Minor (“Minor epitopes” are those that have a response rate that is at least twice the background value)”. Same read-out and setting: for “MGTLGIVCP (human papillomavirus) [HPV E7.16 Peptide 84, 9-mer peptide of HPV16 E7]” the value was “Minor (“Minor epitopes” are those that have a response rate that is at least twice the background value)”; for “MHGDTPTLH (human papillomavirus) [HPV E7.16 Peptide 1, 9-mer peptide of HPV16 E7]”, “Minor (“Minor epitopes” are those that have a response rate that is at least twice the background value)”. For “TLHEYMLDL (human papillomavirus) [HPV E7.16 Peptide 7, 9-mer peptide of HPV16 E7]”, the “Epitope Classification” value is “Minor (“Minor epitopes” are those that have a response rate that is at least twice the background value)”. On the same count and under the same terms, for “TPTLHEYML (human papillomavirus) [HPV E7.16 Peptide 5, 9-mer peptide of HPV16 E7]” the value was “Minor (“Minor epitopes” are those that have a response rate that is at least twice the background value)”.

Still in this test, the particulars now being: HPV E7.18 9-mer peptides, 5 μg/ml, 58 donors, 1 μg/ml anti-CD40; positive response at least 2.95 times the background.
On to “ARRAEPQRH (human papillomavirus) [HPV E7.18 Peptide 51, 9-mer peptide of HPV18 E7]”, for which the “Epitope Classification” value is recorded as “Minor (“Minor epitopes” are those that have a response rate that is at least twice the background value)”. Same read-out and setting: for “CKCEARIKL (human papillomavirus) [HPV E7.18 Peptide 66, 9-mer peptide of HPV18 E7]” the value was “Minor (“Minor epitopes” are those that have a response rate that is at least twice the background value)”; for “PQNEIPVDL (human papillomavirus) [HPV E7.18 Peptide 17, 9-mer peptide of HPV18 E7]”, “Minor (“Minor epitopes” are those that have a response rate that is at least twice the background value)”; for “RIKLVVESS (human papillomavirus) [HPV E7.18 Peptide 71, 9-mer peptide of HPV18 E7]”, “Minor (“Minor epitopes” are those that have a response rate that is at least twice the background value)”. As to “SFVCPWCAS (human papillomavirus) [HPV E7.18 Peptide 95, 9-mer peptide of HPV18 E7]”, the “Epitope Classification” value was “Minor (“Minor epitopes” are those that have a response rate that is at least twice the background value)”.

The values above are taken from patent publication US7329498B2, “HPV CD8+ T-cell epitopes” (Genencor International, Inc., priority 2003, dated 2008).
